Assay results as given in patent publication US10471028B2, “Small molecule efflux pump inhibitors” (UNIVERSITY OF ROCHESTER, priority 2014, dated 2019).
Where two headings read alike, the source gives them in different places.

Legend:
A. baumannii = assay: Antibiotic susceptibility assay in LB medium or 100% human serum; type: cell-based, Acinetobacter baumannii; conditions: serum grown, efflux pump inhibitor present
Description: The antibiotic susceptibility of A. baumannii and Pseudomonas aeruginosa grown in either LB medium or 100% human serum was measured according to the method described below. Briefly, the indicated bacterial species/strain was grown overnight in LB medium, diluted into fresh medium (1:100 dilution) and grown to mid-exponential phase (OD600nm=0.4 to 0.5) at 37° C. with aeration. […] To quantify the antimicrobial effects of each antibiotic toward bacteria grown in LB or serum, well constitutes were serially diluted in PBS and plated on LB agar to enumerate the CFU mL^−1.

[1] = test system: A. baumannii strain 98-37-09; assay: Ethidium bromide efflux assay; type: cell-based, Acinetobacter baumannii; conditions: for ethidium bromide fluorescent signal in comparison to mock treated cells: 10 μg ml^−1 ethidium bromide, 90 min; for cellular ethidium fluorescence compared with PAβN: time course after treatment
Description: To distinguish whether the antimicrobial potentiation of ABEPI1 and ABEPI2 correlates with the inhibition of A. baumannii's efflux properties, conventional ethidium bromide efflux assays were performed in the presence and absence of each compound. The assay is predicated upon the fluorescent properties of ethidium bromide during intercalation into cellular nucleic acids, whereby efflux active cells display limited intracellular ethidium bromide accumulation and, consequently, low fluorescence. Conversely, efflux inhibition leads to increased cellular ethidium bromide levels and correspondingly high fluorescence relative to efflux proficient cells. Bacterial ethidium bromide efflux activity assays were used to measure the efflux inhibitory properties of compounds of interest. For assays, an overnight culture of A. baumannii strain 98-37-09 was diluted (1:100) into 100% human serum or fresh LB and grown to mid-exponential phase. Cell pellets were collected via centrifugation 900×g for 20 minutes, washed 3× with 20 mM sodium phosphate buffer and resuspended to an OD600nm=0.2 in sodium phosphate buffer. Approximately 1×10^6 CFU were loaded into individual wells of 96-well white-bottom plates, mixed with 10 μg ml^−1 ethidium bromide, and ethidium fluorescence (excitation 530nm; emission 600nm) was measured every 5 min for 90 min on a Spectramax5 fluorimeter (Molecular Devices, Sunnyvale, Calif.). To determine if the putative efflux pump inhibitors affected ethidium bromide efflux, cells were treated with the indicated amount of compound of interest or the efflux pump inhibitor, PaβN, two minutes after fluorescence monitoring began.

[2] = test system: A. baumannii strain 98-37-09; assay: MEC determination: potentiation of minocycline toward serum grown A. baumannii; type: cell-based, Acinetobacter baumannii; conditions: for Log-reduction Colony Forming Units (ml^−1): 1×MEC of compound plus minocycline in serum, versus minocycline alone, plating; for MEC: lowest concentration inhibiting growth in 100% human serum with 0.5 μg ml^−1 minocycline, 48 hr
P. aeruginosa PA01 = assay: Potentiation of ciprofloxacin toward serum grown P. aeruginosa; type: cell-based, Pseudomonas aeruginosa; conditions: PA01 in 100% human serum, 1×MEC, ciprofloxacin 0 to 2 μg ml^−1
Description: To do so, PA01 was inoculated into individuals wells of a microtiter plate containing 100% human serum supplemented with 1×MEC of test compound and increasing concentrations of ciprofloxacin (0 to 2 μg ml^−1) and cell viability was measured.

human HepG2 cells = assay: MTT cell viability (cytotoxicity) assay
Description: To distinguish putatively non-toxic from human cytotoxic compounds, conventional 3-(4,5-dimethylthiazol-2yl)-2,5-diphenyltetrazolium bromide (MTT) cell viability assays (American Type Culture Collection, Manassas, Va.) were performed for each compound of interest at 1× and 4× their MEC. Briefly, human HepG2 cells were grown to approximately 1×10^6 cells per well in Dulbecco's Modified Eagle Media supplemented with 10% fetal bovine serum (Invitrogen, Carlsbad, Calif.) then treated with 1× or 4× the MEC of the indicated […] Cell viability was measured following the addition of the tetrazolium salt (MTT) as per the manufacturer's recommendations; cells challenged with 50 ug ml^−1 Mitomycin C (Sigma Aldrich) and mock-treated cells served as positive and negative controls, respectively.

[3] = test system: A. baumannii strain 98-37-09; assay: Cellular accumulation of minocycline (HPLC, triple-quadrupole MS); type: cell-based, Acinetobacter baumannii; conditions: human serum with 0.5 μg mL^−1 minocycline plus test compound (0.5×MEC, 1×MEC), 48 hours
[4] = test system: A. baumannii strain 98-37-09; assay: Potentiation of ciprofloxacin toward serum grown A. baumannii; type: cell-based, Acinetobacter baumannii; conditions: for Potentiate Ciprofloxacin A. baumannii (value in parentheses: log reduction of viability): 1×MEC with ciprofloxacin versus ciprofloxacin alone, plating; for Potentiate Ciprofloxacin A. baumannii: 100% human serum, 0.125 μg ml^−1 ciprofloxacin, 1× or 2× MEC, 48 hour, growth inhibition
Description: As a means to further prioritize non-toxic compounds of interest based on their therapeutic promise, it was considered that broad spectrum antimicrobial efflux pump inhibitors may be more clinically valuable than narrow-spectrum agents that only potentiate the activity of a limited number of antibiotics or that display activity toward a single bacterial species. […] To do so, 1×10^5 A. baumannii strain 98-37-09 were inoculated into individual wells of microtiter plates containing 100% human serum supplemented with 0.125 μg ml^−1 ciprofloxacin and 0, 1×, or 2× the compound's MEC, as defined by the lowest concentration needed to potentiated minocycline's antimicrobial effects (above). Plates were incubated for 48 hour at which point each compound's ability to potentiate ciprofloxacin was measured, as growth inhibition.

[5] = test system: mammalian calcium channel; assay: Mammalian calcium channel assay (Fluo-4); type: cell-based, human; conditions: HEK 293T, carbachol treatment alone
Description: Many laboratory bacterial efflux inhibitor tool compounds cannot be used in the clinical setting because they limit mammalian ion channel activity. […] Thus, we measured the effects of ABEPI1 and ABEPI2 on mammalian calcium channel functions using Fluo-4 Direct Calcium Channel Assay kits (Life Technologies, Carlsbad, Calif.), in which the dye Fluo-4 was used to measure changes in mammalian cytoplasmic Ca^2+ levels in response to the calcium channel stimulator, carbachol, in the absence and presence of test compound. […] Next, 2× Fluo-4 dye supplemented with Probenecid (5 mM) was added to each well and allowed to equilibrate for 1 hr at 37° C. To determine whether ABEPI1 or ABEPI2 affect Ca^2+ channel activity, Fluo-4 fluorescence measures (excitation 495nm; emission 516nm) were then taken every second for 15 sec.

Compound	restoration of tetracycline susceptibility in serum (A. baumannii)	ethidium bromide fluorescent signal in comparison to mock treated cells [1]	Log-reduction Colony Forming Units (ml^−1) [2]	MEC [2]	Potentiate Ciprofloxacin P. aeruginosa (P. aeruginosa PA01)	% Viability (human HepG2 cells)	Minocylcine Per Cell (femtomoles cell^−1) [3]	Potentiate Ciprofloxacin A. baumannii (value in parentheses: log reduction of viability) [4]	Potentiate Ciprofloxacin A. baumannii [4]	cellular ethidium fluorescence compared with PAβN [1]	% Viability (human HepG2 cells; human, 48 h, 4 ×MEC)	increase in cytoplasmic Ca^2+ levels [5]	Potentiate Ciprofloxacin P. aeruginosa (P. aeruginosa PA01; listed as ABEPI1)
phenylalanine arginine beta naphthylamide [PAβN, reference compound]	partially restored	significantly increased cellular ethidium bromide accumulation											
COC(=O)c1ccccc1NC(=O)CN1C(=O)c2ccccc2S1(=O)=O [ST058165]			6.27 log	32 µg/mL	No	76.9%	1.11E−04 femtomoles cell^−1	(1.53) log	Yes				
CC(C)(C)NC(=O)CSc1nnnn1C(C)(C)C [ST060273]		significantly increased signal	6.53 log	32 µg/mL	Yes		6.84E−06 femtomoles cell^−1	(4.36) log	Yes	essentially identical to those of PAβN until approximately 35 min post-treatment	90.1%		
C[N+](C)(C)CCOC(N)=O [Carbachol, carbamylocholine chloride]												approximately 2.3 fold	
NS(=O)(=O)c1ccc(/N=C/c2ccc(Cl)cc2)cc1 [ST009675]		significantly increased signal	6.73 log	2 µg/mL	Yes		5.88E−04 femtomoles cell^−1	(2.28) log	Yes	levels exceeding that of PABN within the first 20 min of treatment	96.6%		potentiated the activity of ciprofloxacin
